Data as given in US20030194450A1, “Method of producing a preparation containing active substances from cannabis” (priority 2002, published 2003).
Values joined by “and” are separate entries in the source; they are usually repeats but may differ in a detail not shown here. Equal entries are not always repeated.

Assay: Δ-9-tetrahydrocannabinol content in milk of a dairy cow fed hemp blossoms
Assay type: in vivo
Conditions: dairy cow fed 14 kg/day feed in two rations, 50 g ensiled hemp blossoms per ration; milk samples one week after initiation of feeding plan
Text: A dairy cow with a medium milk production was fed over a time period of two weeks with a daily feed amount of 14 kg/day, divided up into two rations, 50 g of hemp blossoms having been added to each ration. The hemp blossoms used consisted of the upper part of pistillate hemp plants which were harvested in a way analogous to that employed for harvesting corn. The material was processed by a corn chaff cutter and underwent an ensilage step. The rest of the fodder was normal cattle feed (Total Mix Ratio, TMR) as is commonly provided in agriculture to cows for milk production. The content of Δ-9-tetrahydrocannabinol active substance in milk samples obtained one week after initiation of the feeding plan was determined to be 0.15 mg/l and 0.63 mg/l. The measurements were carried out in an accredited laboratory (Swiss testing STS 017, EN 45001, GMP).

## CCCCCc1cc(O)c2c(c1)OC(C)(C)[C@@H]1CCC(C)=C[C@@H]21 [Δ-9-tetrahydrocannabinol]
  content of Δ-9-tetrahydrocannabinol active substance in milk samples: 0.15 mg/L and 0.63 mg/L
